Values of other authors as cited in patent publication US20080097086A1, “Process for preparing anti-tumor oligosaccharide material from chitosan” (TENWELL BIOTECHNOLOGY LIMITED, priority 2006, published 2008).
Several values for one entry are separate records, joined by “and”; a condition that tells them apart may be missing. Equal entries are not always repeated.

Columns and labels:
[1] = system: S180; conditions: intravenous, S180-implanted ddY mice
[2] = system: fibrosarcoma (Meth-A) solid tumor cells

chitohexaose
inhibitory rate on tumor growth ([1]; 3 times at 100 mg/Kg/d, after seven days, 100 mg/kg/day): 85% and 93% | control of tumor growth ([1]; increased to 5 times): complete control of tumor growth | dose displaying the strongest effect ([2]; Meth-A solid tumor): 10 mg/kg | inhibition of Meth-A solid tumor ([2]; in vivo): significant inhibition
